Paper PMC10641818, “Development of First-in-Class Dual Sirt2/HDAC6 Inhibitors as Molecular Tools for Dual Inhibition of Tubulin Deacetylation” (Journal of Medicinal Chemistry, 2023)

What was measured:
Sirt2 (demyristoylation) = Sirt2 (demyristoylation) (Homo sapiens, UniProt Q8IXJ6); experiment: Continuous Sirt2 demyristoylation assay (myristoylated peptide substrate); type: biochemical; conditions: peptide-based myristoylated substrate, triplicate; read-out: Sirt2-mediated demyristoylation IC50
Sequence of Sirt2 (demyristoylation) (Q8IXJ6 whole entry): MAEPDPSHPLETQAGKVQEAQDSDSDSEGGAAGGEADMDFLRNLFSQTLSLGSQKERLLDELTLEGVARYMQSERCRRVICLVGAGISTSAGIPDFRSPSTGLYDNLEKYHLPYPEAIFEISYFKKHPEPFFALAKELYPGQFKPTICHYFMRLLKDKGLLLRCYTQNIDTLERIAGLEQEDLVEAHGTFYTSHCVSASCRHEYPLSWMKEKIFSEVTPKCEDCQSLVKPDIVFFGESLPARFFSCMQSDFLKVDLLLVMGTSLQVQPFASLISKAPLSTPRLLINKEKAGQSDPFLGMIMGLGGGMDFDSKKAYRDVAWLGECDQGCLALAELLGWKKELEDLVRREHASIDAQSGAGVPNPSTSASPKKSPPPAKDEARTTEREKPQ
Description: As a second method to confirm the inhibition of Sirt2-mediated demyristoylation by 33, we used a continuous Sirt2 demyristoylation assay as reported by Zessin et al.[48] In brief, this assay was performed in a black 384-well fluorescence plate in a total volume of 40 μL of Sirt assay buffer (20 mM Tris-HCl, 150 mM NaCl, 5 mg/mL MgCl2, 2 mg/mL BSA, pH 7.8). Dilution series of the inhibitor was done in DMSO. A total of 2 μL of the inhibitor dilutions were incubated with 14 μL of the peptide substrate, referred to as F4 in Zessin et al.[48] (final concentration 40 nM) and 14 μL of Sirt2 solution (final concentration 1 nM) for 5 min at room temperature. In addition to the inhibitor-containing samples, a sample without inhibitors was measured as a positive control, and a sample without enzymes was measured as a negative control. The DMSO concentration was set to 5% (v/v). The reaction was started by the addition of 10 μL of NAD^+ (final concentration 500 μM). The product formation was monitored by the change in fluorescence intensity, and the reaction rate represented the activity. Fluorescence readout was performed with a BMG Fluostar Omega plate reader at following wavelengths: Excitation wavelength: λEx = 485 ± 10 nm, emission wavelength: λEm = 530 ± 10 nm. Inhibition was calculated using the following equation: [drawing 1] […]

HDAC5 = HDAC5 (Homo sapiens, UniProt Q9UQL6); experiment: HDAC5 continuous fluorescence deacylation assay; type: biochemical
Sequence of HDAC5 (Q9UQL6 whole entry, species assumed): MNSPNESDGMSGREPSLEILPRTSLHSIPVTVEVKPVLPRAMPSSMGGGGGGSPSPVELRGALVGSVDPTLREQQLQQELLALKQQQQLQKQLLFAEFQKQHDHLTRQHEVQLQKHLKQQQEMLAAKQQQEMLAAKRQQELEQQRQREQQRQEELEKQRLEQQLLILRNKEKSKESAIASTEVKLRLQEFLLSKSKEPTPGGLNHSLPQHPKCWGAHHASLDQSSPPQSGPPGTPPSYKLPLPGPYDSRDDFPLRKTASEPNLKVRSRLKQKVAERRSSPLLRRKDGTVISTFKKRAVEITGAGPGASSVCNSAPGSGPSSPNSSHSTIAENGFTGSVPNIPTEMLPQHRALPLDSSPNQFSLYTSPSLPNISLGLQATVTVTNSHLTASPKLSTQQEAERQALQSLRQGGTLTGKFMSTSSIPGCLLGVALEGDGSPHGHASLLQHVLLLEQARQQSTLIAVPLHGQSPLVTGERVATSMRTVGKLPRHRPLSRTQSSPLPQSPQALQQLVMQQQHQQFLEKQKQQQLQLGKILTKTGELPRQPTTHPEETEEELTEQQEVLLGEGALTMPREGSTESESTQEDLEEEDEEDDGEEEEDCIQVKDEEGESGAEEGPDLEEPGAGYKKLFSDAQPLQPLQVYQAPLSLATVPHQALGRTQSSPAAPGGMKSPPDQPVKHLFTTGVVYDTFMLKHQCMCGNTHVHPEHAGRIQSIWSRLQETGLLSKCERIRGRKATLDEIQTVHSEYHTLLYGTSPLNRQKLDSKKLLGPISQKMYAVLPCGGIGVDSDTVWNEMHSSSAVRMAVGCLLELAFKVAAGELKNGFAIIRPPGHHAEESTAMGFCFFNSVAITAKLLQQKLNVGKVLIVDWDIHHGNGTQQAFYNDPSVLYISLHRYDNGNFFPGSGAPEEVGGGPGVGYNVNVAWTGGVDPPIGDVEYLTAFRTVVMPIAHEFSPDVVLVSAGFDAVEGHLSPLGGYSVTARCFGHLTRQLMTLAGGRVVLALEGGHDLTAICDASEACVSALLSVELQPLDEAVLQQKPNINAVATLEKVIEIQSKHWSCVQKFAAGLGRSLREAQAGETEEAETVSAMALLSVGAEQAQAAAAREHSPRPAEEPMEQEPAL

[1] = tested on: histone H3 acetylation (marker of HDAC1-3 inhibition); experiment: Western blot on histone H3 hyperacetylation in MCF-7 cells; type: cell-based; conditions: 24 h, 10 µM
Description: Western blots on histone H3 hyperacetylation in MCF-7 cells were performed according to a previously published protocol.[72] In brief, MCF-7 were centrifuged (450g, 4 min, 22 °C) and lysed with cell extraction buffer (Thermo Fisher), supplemented with 0.1 mM PMSF, Halt Protease Inhibitor (Thermo Fisher), and Natriumorthovanadat (Thermo Fisher). Precast gels with a polymerization degree of 4–15% were used (Mini-PROTEAN TGX Stain-Free; Bio-Rad Laboratories GmbH, Munich, Germany). Proteins were transferred to Trans-Blot Turbo-PVDF membrane (Bio-Rad). The membrane was blocked with skimmed milk powder in Tris-buffered saline-Tween 20 (with 0.2% Tween 20) for 60 min, followed by three washing cycles of 10 min using Tris-buffered saline-Tween 20. Afterward, membranes were incubated with primary antibodies for ac.-Histon H3 (Cell Signal, rabbit) and GAPDH (Gene Tex, Irvine, USA, mouse) for a total of 60 min at room temperature and then incubated at 4 °C overnight. […] After rinsing of the secondary antibody, membranes were detected using ClarityECL Western Blotting Substrate (Bio-Rad). For quantitative determination, the StainFree technique was employed (Bio-Rad), as well as normalization, against the housekeeping protein GAPDH, which allows the imaging of whole lysates in SDS-PAGE before blotting and normalization against the total protein. […]

HDAC6 = molecular target: T1, HDAC6 (Homo sapiens, UniProt Q9UBN7); experiment: HDAC6 degradation rescue experiment with PROTAC B4 (62) in MCF-7 cells (western blot); type: cell-based; parameters: endogenous in cells; host or cells: MCF-7; conditions: 20 μM pretreatment 30 min, then 62 (1 or 10 μM) 6 h
T1 sequence (Q9UBN7 1-1215): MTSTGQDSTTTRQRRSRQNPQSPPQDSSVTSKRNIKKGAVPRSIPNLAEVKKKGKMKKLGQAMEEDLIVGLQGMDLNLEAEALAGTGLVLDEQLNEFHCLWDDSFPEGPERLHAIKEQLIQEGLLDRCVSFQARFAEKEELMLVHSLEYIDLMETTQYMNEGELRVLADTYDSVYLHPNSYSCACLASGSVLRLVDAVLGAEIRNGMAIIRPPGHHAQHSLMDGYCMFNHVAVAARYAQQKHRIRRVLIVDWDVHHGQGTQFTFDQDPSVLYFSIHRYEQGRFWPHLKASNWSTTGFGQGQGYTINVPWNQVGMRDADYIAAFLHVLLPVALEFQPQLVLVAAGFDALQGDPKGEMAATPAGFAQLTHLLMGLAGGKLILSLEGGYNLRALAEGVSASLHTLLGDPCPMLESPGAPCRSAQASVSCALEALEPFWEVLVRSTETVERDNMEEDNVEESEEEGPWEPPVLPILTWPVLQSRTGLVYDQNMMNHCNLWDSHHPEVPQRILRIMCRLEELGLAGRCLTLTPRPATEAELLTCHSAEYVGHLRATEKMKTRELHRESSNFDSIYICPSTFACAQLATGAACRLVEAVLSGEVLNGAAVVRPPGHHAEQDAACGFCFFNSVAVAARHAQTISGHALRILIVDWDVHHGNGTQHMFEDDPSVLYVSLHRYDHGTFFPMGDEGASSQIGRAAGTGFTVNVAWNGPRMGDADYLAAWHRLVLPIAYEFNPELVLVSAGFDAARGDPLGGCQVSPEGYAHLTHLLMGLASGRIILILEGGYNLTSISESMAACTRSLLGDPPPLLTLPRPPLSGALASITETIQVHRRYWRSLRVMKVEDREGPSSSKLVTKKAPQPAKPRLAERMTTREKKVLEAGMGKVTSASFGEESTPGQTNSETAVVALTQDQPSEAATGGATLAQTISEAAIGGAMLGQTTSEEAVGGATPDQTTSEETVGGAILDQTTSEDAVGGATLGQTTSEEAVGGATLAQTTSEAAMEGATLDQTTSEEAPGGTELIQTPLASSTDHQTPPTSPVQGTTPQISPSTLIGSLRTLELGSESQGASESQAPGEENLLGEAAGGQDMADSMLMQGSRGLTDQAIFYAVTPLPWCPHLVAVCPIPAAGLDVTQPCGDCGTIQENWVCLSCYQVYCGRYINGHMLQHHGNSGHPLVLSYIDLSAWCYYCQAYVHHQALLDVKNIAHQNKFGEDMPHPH

IC50 (Sirt2 (demyristoylation)): 880 ± 90 nM
IC50 (HDAC5): > 6000 nM
inhibition at 6 µM (HDAC5; @ 6 µM, read-out: HDAC5 percentual inhibition): 18%
inhibition at 20 µM (HDAC5; @ 20 μM, read-out: HDAC5 percentual inhibition): 57%
Structure (SMILES): CCCCN(Cc1ccc(C(=O)NO)cc1)C(=O)CCCCn1cc(COc2cccc(Cc3cnc(NC(=O)CSc4nc(C)cc(C)n4)s3)c2)nn1 [Compound 33, 4-((N-Butyl-5-(4-((3-((2-(2-((4,6-dimethylpyrimidin-2-yl)thio)acetamido)thiazol-5-yl)methyl)phenoxy)methyl)-1H-1,2,3-triazol-1-yl)pentanamido)methyl)-N-hydroxybenzamide]
Histone H3 hyperacetylation (cellular class I HDAC off-target inhibition) [1]: no significant off-target inhibition of class I
Rescue of HDAC6 from degradation induced by PROTAC 62 (HDAC6): able to rescue HDAC6 from proteasomal degradation induced by 62
